Measurements taken from patent US20050065206A1, “Skin preparation comprising a tocopherol derivative for external application” (priority 2001, published 2005).

Legend:
[1] = tested on: skin removed from the back of a hairless mouse; assay: Evaluation of skin penetrability, amount of α-tocopherol in the skin; assay type: in vitro ADME; conditions: 4 hours at 37° C.; for amount of α-tocopherol in the skin: 0.50 (mass %) in Dulbecco's MEM medium, HPLC, not added: 10
[2] = tested on: skin removed from the back of a hairless mouse; assay: Evaluation of skin penetrability, amount of γ-tocopherol in the skin; assay type: in vitro ADME; conditions: 4 hours at 37° C.; for amount of γ-tocopherol in the skin: 0.50 (mass %) in Dulbecco's MEM medium, HPLC, not added: 10
[3] = tested on: keratinocytes of normal human epidermis; conditions: final concentration 1 mM, 37° C. for 2 hours; not added: lower than detection limit
Method: The cells were harvested and spalled by freeze-thawing method. To this cell spall solution, 1), 2) or 3) was added to have a final concentration of 1 mM. The resulting solution was kept at 37° C. for 2 hours and then the amount of α-tocopherol liberated in the reaction solution was measured.

SMILES	amount of α-tocopherol in the skin [1]	change of the α-tocopherol amount in the treated skin ([1]; 0.50 in medium)	amount of γ-tocopherol in the skin [2]	change of the γ-tocopherol amount in the treated skin ([2]; 0.50 in medium)	amount of α-tocopherol liberated in the reaction solution [3]
Cc1c(C)c2c(c(C)c1OC(=O)CN)CCC(C)(CCCC(C)CCCC(C)CCCC(C)C)O2.Cl (stereo not shown)	24 nmol/g of skin	significant increase			
Cc1c(OC(=O)CN)cc2c(c1C)OC(C)(CCCC(C)CCCC(C)CCCC(C)C)CC2.Cl (stereo not shown)			24 nmol/g of skin	significant increase	
CC(=O)Oc1c(C)c(C)c2c(c1C)CCC(C)(CCC[C@H](C)CCC[C@H](C)CCCC(C)C)O2 (stereo partly drawn) [α-Tocopherol acetate, reference compound]	11 nmol/g of skin				0.5 nmol/ml of cell suspension
CC(=O)Oc1cc2c(c(C)c1C)OC(C)(CCCC(C)CCCC(C)CCCC(C)C)CC2 (stereo not shown) [γ-Tocopherol acetate, reference compound]			11 nmol/g of skin		
